Data set [1] addresses T1, human α2AAR (Homo sapiens (Human), UniProt P08913). Nature of the data set: Radioligand competition binding to human α2AAR (HEK293T membranes, [3H]RX82,1002). The settings on record: human α2AAR.
Data set [2] addresses α2AAR-S215^5.42A (Homo sapiens (Human), UniProt P08913, S215A). The data set can be described thus: Gi activation (BRET) at α2AAR S215^5.42A mutant. Type of data set: cell-based. The conditions noted are these: versus wild type. The protocol:
Investigating the sensitivity of selected ligands to the receptor mutants α2AAR-D128^3.32A, α2AAR-D128^3.32T, α2AAR-D128^3.32L, α2AAR-S215^5.42A, α2AAR-Y409^6.55A, α2AAR-Y409^6.55T, α2AAR-Y409^6.55F, α2AAR-F427^7.39F, α2AAR-Y431^7.43A, and α2AAR-Y431^7.43F was determined by monitored G protein stimulation as described above transfecting the appropriate receptor together with Gαi1-RLucII and Gβ1/Gγ1-GFP10. […] Three to ten experiments were done in duplicate.
The sensitivity of selected ligands to the receptor mutants α2AAR-D128^3.32A, α2AAR-D128^3.32T, α2AAR-D128^3.32L, α2AAR-S215^5.42A, α2AAR-Y409^6.55A, α2AAR-Y409^6.55T, α2AAR-Y409^6.55F, α2AAR-F427^7.39F, α2AAR-Y431^7.43A, and α2AAR-Y431^7.43F was monitored by G protein activation as described above transfecting the appropriate receptor together with Gαi1-RLucII and Gβ1/Gγ2-GFP10. […] Similarly, the effect of the α2AAR-D128^3.32A, α2AAR-S215^5.42A, α2AAR-Y409^6.55A, α2AAR-Y409^6.55F, α2AAR-F427^7.39F, α2AAR-Y431^7.43A, and α2AAR-Y431^7.43F mutations on arrestin recruitment was evaluated as described above transfecting the appropriate receptor together with CAAX-rGFP, GRK2 and β-arrestin-2-RLucII. Data was analyzed as ligand induced changes in BRET compared to vehicle (deltaBRET). Three to seven experiments were done in duplicate.

Data set [3] in a line: Pharmacokinetics in mice (plasma, brain, CSF). The class given is in vivo.
The target of data set [4] is T1, human α2AAR. The data set can be described thus: Gαi G protein activation, BRET biosensor assay in HEK293T cells. The settings on record: for Emax: HEK-293T.
Procedure: Bioluminescense resonance energy transfer. G protein mediated activation of human α2AAR and D2long was monitored with Gαi1-RLucII (71, 72) together with Gβ1 and Gγ1-GFP10. Arrestin recruitment was performed by enhanced bystander BRET using CAAX-rGFP and β-arrestin-2-RLucII as biosensors (all biosensors are provided from M. Bouvier, Université de Montréal, Canada) (71, 73) in the presence of GRK2 as described (66, 74). In brief, HEK293T cells were transfected with a total amount of 3.3 μg DNA per 10^6 cells using linear polyethyleneimine (PEI, Polysciences, 3:1 PEI:DNA ratio) and transferred into 96-well half-area plates (Greiner, Frickenhausen, Germany) at a density of 10,000 cells per well and incubated for 48 hrs. Medium was exchanged with PBS (Hank's balanced salt solution) and cells were stimulated with ligands at 37° C. for 10 min for Gαi stimulation or arrestin recruitment, respectively.
Where [5] appears, read: mouse, plasma, ip, I.P. 10 mg/kg.

The structures appear in SMILES notation. Where two headings read alike, the source gives them in different places.

T1 sequence (P08913 whole entry): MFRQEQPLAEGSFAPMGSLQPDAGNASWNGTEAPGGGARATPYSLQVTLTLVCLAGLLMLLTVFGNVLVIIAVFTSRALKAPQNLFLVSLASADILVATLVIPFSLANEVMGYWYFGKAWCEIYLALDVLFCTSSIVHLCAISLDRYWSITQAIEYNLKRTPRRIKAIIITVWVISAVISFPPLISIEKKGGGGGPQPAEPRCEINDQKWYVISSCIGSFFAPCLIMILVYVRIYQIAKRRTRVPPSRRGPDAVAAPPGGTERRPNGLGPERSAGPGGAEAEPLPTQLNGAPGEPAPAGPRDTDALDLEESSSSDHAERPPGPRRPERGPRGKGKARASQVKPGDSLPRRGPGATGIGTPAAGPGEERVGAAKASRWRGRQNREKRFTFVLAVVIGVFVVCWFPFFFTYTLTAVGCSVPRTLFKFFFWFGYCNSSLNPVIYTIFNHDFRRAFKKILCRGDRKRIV
Sequence of α2AAR-S215^5.42A (P08913 whole entry S215A): as the sequence (P08913 whole entry) above, with S215A counted along it

On to `Fc1cccc2c(Nc3ccncc3)cccc12` [Compound 7075, N-(5-fluoronaphthalen-1-yl)pyridin-4-amine], for which the inhibitory constant (Ki) worked out at 37 ± 5.1 nM in data set [1] (mean ± SEM (Table 3), read-out: Ki) and 37 ± 5.1 nM in data set [1] (mean ± s.e.m., read-out: Ki for α2AAR). For the same molecule, in data set [2], the “Fold improvement of Gi potency at S215^5.42A” value is recorded as 11 fold. Besides, the “Fold greater CSF Cmax than PS75” value in data set [3] (10 mg/kg i.p.) stood at 4 fold. Also, the half-life in data set [3] (C57BL/6N ('9087, '7075, '4622), CD-1 (PS75), mouse, CSF, ip, I.P. 10 mg/kg, read-out: T ½ CSF (converted)) is 13.2 min; in data set [3] (mouse, brain, ip, I.P. 10 mg/kg, read-out: T ½ Brain (converted)) it was 43.8 min; in data set [3] (mouse, plasma, ip, I.P. 10 mg/kg, read-out: T ½ Plasma (converted)) it was 38.4 min. Besides, the “AUC Brain” value in data set [3] (I.P. 10 mg/kg) stood at 814000 ng·min/mL. In addition, the “AUC CSF” value in data set [3] (I.P. 10 mg/kg) amounted to 12000 ng·min/mL. Also, in data set [3] (I.P. 10 mg/kg), the “Cmax Brain” value amounted to 8570 ng/mL. In addition, in data set [3] (I.P. 10 mg/kg), the “Cmax CSF” value was found to be 412 ng/mL. In data set [3] (setting [5]), this molecule had an AUC of 952 ng·h/mL. The same molecule returned a Cmax in data set [3] (setting [5]) of 694 ng/mL. Also, the “Fold increased Gi potency compared to ‘9087” value in data set [4] came to 13 fold. Also, the EC50 in data set [4] (Gi EC50 ± SE, BRET biosensor, human α2AAR (Table 3)) was 4.1 nM; in data set [4] (Gαi EC50, BRET biosensor, HEK293T, human α2AAR), 4.1 nM. Moreover, the Emax in data set [4] (read-out: Gi Emax ± SEM) and in data set [4] (read-out: Gαi Emax) was 93% throughout.

The values above are taken from US20250032476A1, “ALPHA-2A ADRENERGIC RECEPTOR MODULATORS AND USES THEREOF” (The Regents of the University of California, priority 2021, published 2025).
